Measurements from patent US20030100598A1, “Novel esters derived from (rr,ss)-2-hydroxybenzoate of 3-(2-dimethylaminomethyl-1-hydroxycyclohexyl)phenyl” (priority 1999, published 2003).

What was measured:
[1] = tested on: Male Swiss mice; experiment: Determination of the DL50 (acute single dose oral toxicity); assay type: in vivo; settings: oral adm., 14 days observation
Procedure: (EUDRA/S/87/011, Single Dose Toxicity, European Directive 75/318/EEC) (ICH S4, Toxicity Studies, single dose and repeated dose, CPMP vol III February 87, Single dose toxicity)
Male Swiss mice of the same batch weighing 20-25 g are used in order to estimate the acute toxicity of the products.
Prior to administering the products, the animals were forced to fast for 12 hours with no intake of food but free access to water. Several subgroups of 10 animals were randomly selected and orally given increasing doses of the products in single administration, after which they remained under observation for a period of 14 days with free access to water and food. Finally, the number of dead animals of each subgroup was quantified and the value of the DL50 was calculated (1-2).

[2] = tested on: Male Swiss mice; experiment: Hot plate method, analgesic activity in mice; assay type: in vivo; settings: for % response time increase on hot plate: 20 μmol/kg, oral adm., n = 20-40; for % response time increase: hot plate, 15 mg/kg, intraperitoneal adm., n = 20
Procedure: The method that was used is described by Eddy N. B. and Leimbach D. (J. Pharm. Exp. Ther. 107: 385-393, 1953). The analgesic effect of the products was evaluated analysing the behaviour of the animals on a hot surface at 55° C.±1° C.
Male Swiss mice weighing 20-25 g were used. The compounds being tested were administered orally or intraperitoneally 1 hour ∘ 30 minutes before starting the test, respectively.
The process consisted of placing the animals on the plate and keeping them in a Plexiglas cylinder 25 cm high and 21 cm […]. The time the animals took to jump off the hot surface was determined. The animals were selected before starting the test so that those that took longer than 10 seconds to jump off were not included in the group that would receive treatment.
30 minutes after administering the product being tested, the test was repeated and the maximum time it took the animals to jump off was again recorded.
The results are expressed as the % of jump time increase calculated as follows: [formula]
In order to determine the duration of the analgesic effect of the orally administered products, the analgesic activity was evaluated on the hot plate 1, 3, 6, 8, and 24 hours after the administration of the product, as well as the control group which received treatment only with the vehicle. The base responses were evaluated at 30 and 5 minutes prior to administering the products.

Structure (SMILES): COc1cccc(C2(O)CCCCC2CN(C)C)c1 (single isomer, unassigned) [Tramadol, (1R, 2R or 1S, 2S)-2-[(dimethylamino)methyl]-1-(3-methoxyphenyl) cyclohexano, reference compound]
- DL50 approx. [1]: ~350 mg/kg
- % response time increase on hot plate [2]: 87 ± 23%
- % response time increase [2]: 218 ± 98%

Structure (SMILES): CC(C)Cc1ccc(C(C)C(=O)Oc2cccc(C3(O)CCCCC3CN(C)C)c2)cc1 (stereo not drawn) [EXAMPLE 1, 3-(2-dimethylaminomethyl-1-hydroxy-cyclohexyl)-phenyl 2-(4-isobutyl-phenyl)-propionate]
- DL50 approx. [1]: ~900 mg/kg
- % response time increase on hot plate [2]: 210 ± 88%
- % response time increase [2]: 568 ± 100%

Structure (SMILES): COc1ccc2cc(C(C)C(=O)Oc3cccc(C4(O)CCCCC4CN(C)C)c3)ccc2c1 (stereo not drawn) [EXAMPLE 2, 3-(2-dim-ethylaminomethyl-1-hydroxy-cyclohexyl)-phenyl 2-(6-methoxy-naphthalen-2-yl)-propionate]
- % response time increase [2]: 539 ± 50%

Structure (SMILES): CN(C)CC1CCCCC1(O)c1cccc(OC(=O)C2CCn3c(C(=O)c4ccccc4)ccc32)c1 (stereo not drawn) [EXAMPLE 3, 3-(2-dimethylaminomethyl-1-hydroxy-cyclohexyl)-phenyl 5-benzoyl-2,3-dihydro-1H-pyrrolizine-1-carboxylate]
- % response time increase [2]: 416 ± 146%

Structure (SMILES): CC(C)Cc1ccc(C(C)C(=O)Oc2cccc(C3=C(CN(C)C)CCCC3)c2)cc1 (stereo not drawn) [EXAMPLE 4, 3-(2-dimethylaminomethyl-cyclohex-1-enyl)-phenyl 2-(4-isobutyl-phenyl)-propionate]
- % response time increase [2]: 333 ± 134%

Structure (SMILES): COc1ccc2cc(C(C)C(=O)Oc3cccc(C4=C(CN(C)C)CCCC4)c3)ccc2c1 (stereo not drawn) [EXAMPLE 5, 3-(2-dimethylaminomethyl-cyclohex-1-enyl)-phenyl 2-(6-methoxy-naphthalen-2-yl)-propionate]
- % response time increase [2]: 356 ± 151%

Structure (SMILES): CN(C)CC1CCCCC1(O)c1cccc(OC(=O)c2ccccc2O)c1 (stereo not drawn) [EXAMPLE 6, 3-(2-dimethylaminomethyl-1-hydroxy-cyclohexyl)-phenyl (RR-SS)-2-hydroxybenzoate]
- DL50 approx. [1]: ~550 mg/kg
- % response time increase on hot plate [2]: 248 ± 72%
- % response time increase [2]: 546 ± 63%

Structure (SMILES): CN(C)CC1=C(c2cccc(OC(=O)c3ccccc3O)c2)CCCC1 [EXAMPLE 7, 3-(2-dimethylaminomethyl-cyclohex-1-enyl)-phenyl 2-hydroxybenzoate]
- % response time increase [2]: 634 ± 42%

Structure (SMILES): CN(C)CC1CCCCC1(O)c1cccc(OC(=O)c2ccccc2OC(=O)N(C)C)c1 (stereo not drawn) [EXAMPLE 8, 3-(2-dimethylaminomethyl-1-hydroxy-cyclohexyl)-phenyl (RR—SS)-2-dimethylcarbamoyloxy-benzoate]
- % response time increase [2]: 327 ± 65%
